Experiments:
C165S AhpC-SOH = C165S AhpC-SOH (Salmonella typhimurium, UniProt P0A251, C166S); experiment: Labeling of C165S AhpC-SOH monitored by ESI-TOF MS; format: biochemical, bacteria
Method: The C165S AhpC was reduced in 10 mM DTT at room temperature for […] and the DTT was then removed by passing the protein solution through a Bio-Gel spin column equilibrated with ddH2O. The protein concentration was measured based on absorbance at 280 nm using the extinction coefficient 24,300 (M^−1 cm^−1). Typically, 200-400 μM C165S AhpC protein was oxidized to —SOH by incubating with 2 equivalents H2O2 for […] at r.t. with mixing. The excess H2O2 was removed using Bio-Gel spin columns equilibrated with ddH2O.
The C165S AhpC-SOH protein generated as described above was diluted to 50 μM in 50 mM Bis-tris-citric acid buffer (pH 7.4) containing 5 mM (final concentration) of reagent 1. After 3 h incubation with mixing, 30 μL aliquot of reaction mixture was passed through a Bio-Gel column equilibrated with 0.1% formic acid for ESI-TOF MS analysis. […] The covalent C165S AhpC-1 adduct was incubated with 50 mM-1 M hydroxylamine (stock 1N hydroxylamine, pH 8.0-8.5, adjusted by adding 2 N NaOH or 1 N ammonium bicarbonate) for 1 h at 37° C. before passing through the Bio-Gel column for ESI-TOF MS analysis.
The C165S AhpC-SOH protein was immediately aliquot to appropriate buffers: 50 mM Bis-tris-citric acid pH 7.4, 8.5, and 9.5, and 25 mM critic acid-Na2HPO4 buffers pH 5.5, and 6.5. Final concentrations of 50 μM protein and 5 mM labeling reagents (dimedone or 2) were used for all reactions. Dimedone stock was made in 0.5 M Bis-tris and DMSO (v:v=1:1) to pre-buffer its acidity around 6.5 before adding it to the reaction buffers. Final DMSO concentration during labeling was 0.5%. At the end of the incubation time (4 h for data in FIG. 1—pH 7.4 and 8.5; 90 min for data in FIG. S5A—pH 5.5-9.5), 30 μl, reaction mixture at each pH was passed through a Bio-Gel spin column and analyzed by ESI-TOF MS. Data were fit using SigmaPlot 11.0 and the user defined equation below to obtain the pKa: […]
The C165S AhpC-SOH was incubated with increasing concentrations of 2 (0.2, 0.5, 1, 5, and 10 mM) for 2 h in 50 mM Bis-tris-citric acid (pH 7.4) at r.t. The reaction mixture (30 μL) was passed through a Bio-Gel spin column and analyzed by ESI-TOF MS. Data were fit to a hyperbolic equation to determine K0.5 using SigmaPlot 11.0.
C165S AhpC-SOH protein was first labeled by 2 at pH 9.5 for 1 h and passed successively through three Bio-Gel spin columns equilibrated with PBS to remove the unreacted 2. Near 100% labeling of AhpC was configured by ESI-TOF MS. The C165S AhpC-2 adduct concentration was measured at 280 nm using the extinction coefficient 24,300 (M^−1 cm^−1) and then diluted in PBS to a final concentration of 50 μM. Click reaction was conducted by adding the following reagents in order: biotin-OEG11-azide (1 mM, final, from 50 mM stock in DMSO), TCEP (2 mM, final, from 100 mM stock freshly made in H2O), TBTA (0.1 mM, final, from 1.7 mM stock made in 1:4 DMSO/t-butanol) and CuSO4 (1 mM, final, from 50 mM stock in H2O). The mixture was incubated at r.t. for 2 h and then 30 μL of reaction mixture was passed through a Bio-Gel column equilibrated with 0.1% formic acid for ESI-TOF MS analysis. The biotin moiety was removed by hydroxylamine treatment as described above and the reaction products were analyzed by ESI-TOF MS.
(§1) ESI-TOF-MS analysis was performed on Agilent MSD TOF system in positive ion mode with the following settings: capillary voltage (VCap) 3500 V, nebulizer gas 30 psig, drying gas 5.0 L min^−1; fragmentor 140 V; gas temperature 325° C. The samples were injected at a flow rate of 20 μL min^−1, using a syringe pump (KD Scientific). The averaged MS spectra were deconvoluted using the Agilent MassHunter Workstation Software v B.01.03.

NIH 3T3 cells = experiment: DCF assay (intracellular ROS level); format: cell-based; settings: 10 mM, 2 h
Method: NIH 3T3 cells cultured in 60-mm dishes were serum starved overnight and incubated with 10 mM dimedone, reagent 2 or 1% DMSO individually for 2 h. 5-(and-6)-carboxy-2′,7′-dichloro-dihydrofluorescein diacetate (carboxy-H2DCFDA) (100 μM; Invitrogen) was added to cells at room temperature after the incubation. The cells were then immediately washed twice with PBS and visualized with Arcturus PixCell II laser capture microscope using 20× objective.

SCC-61 cells [1] = experiment: Cell membrane permeability assay; format: cell-based; settings: 10 mM, 2 h
Method: SCC-61 cells were cultured to 95% confluence in complete media (DMEM/F12 High Glucose (Invitrogen) supplemented with 10% fetal bovine serum (FBS, Invitrogen), 1% penicillin & streptomycin (Invitrogen)). Cells were washed with HBSS buffer (pH 7.4) three times and incubated with 10 mM probe 2 in HBSS at r.t. for 2 h. Cells incubated in HBSS without 2 were included as controls. After the incubation, cells were carefully washed by HBSS three times to remove excess 2 and lysed with the lysis buffer described above except in the absence of 2. Lysates were incubated at r.t. for additional 2 h to ensure complete labeling prior to the addition of cold MeOH/CHCl3 for protein precipitation. The denatured proteins were resolubilized in 1% SDS (in PBS) for the click reaction, which was then followed by Western-blot analysis as described above.

SCC-61 cells [2] = experiment: MTT assay (cell viability); format: cell-based; settings: 1 h incubation, 1-20 mM
Method: MTT (3-(4,5-dimethylthiazol-2-yl)-2,5-diphenyltetrazolium bromide) assay was used to test the SCC-61 cell viability when incubated with dimedone or 2 for 1 h. SCC-61 cells were seeded in a 96-well plate at a density of 5,000 per well in 50 μL, and incubated overnight. Dimedone or 2 (50 μL) was added to each well at final concentrations of 1, 2.5, 5, 10, and 20 mM. Plates were then incubated for 1 h at 37° C. in a humidified atmosphere with 5% CO2. MTT labeling reagent (Roche; 5 mg/ml in PBS, 10 μL) was added to each well, and the plate was incubated for 4 h at 37° C. The solubilization solution (100 μL) was then added to each well for overnight incubation at 37° C. The following day, absorbance was measured at 570 nm and all experiments were repeated twice. The resulting curves were fitted using SigmaPlot software to a sigmoidal dose-response equation to determine the IC50. The IC50 represents the concentration of chemical probe causing a 50% reduction in cell viability.

[3] = system: —SOH proteins in NIH 3T3 cell lysates; experiment: Labeling of —SOH proteins in NIH 3T3 cell lysates (click biotinylation, Western blot); format: biochemical; settings: for labeling of lysate proteins (streptavidin-HRP signal): 5 mM
Method: NIH 3T3 cells were cultured to 95% confluence in complete media (DMEM High Glucose (Invitrogen) supplemented with 10% fetal bovine serum (FBS, Invitrogen) and 1% penicillin & streptomycin (Invitrogen)). Cells were washed with PBS three times and lysed using 5 mM of 2 in lysis buffer (50 mM NaCl, 1 mM EDTA, 1 mM EGTA, 10% Glycerol, 1% Triton X-100, 25 mM NaF, 10 μM ZnCl2, supplemented with protease and phosphatase inhibitor tablets (Roche)). Lysis buffer was made in 50 mM citric acid/Na2HPO4 when labeling was carried out at pH 5.5 and 7.4, and in 50 mM NaHCO3/Na2CO3 for labeling at pH 9.5. Lysates were incubated for 2 h at r.t. and then quenched by adding cold MeOH/CHCl3^[1] to remove excess 2.
Cells were lysed using lysis buffer (pH 7.4) supplemented with 2 (5 mM) as described above. The labeling was allowed to proceed at r.t. for 2 h before quenching with MeOH/CHCl3. Protein pellets precipitated from 200 μL lysate were resuspended in 50 μL, 1% SDS in PBS, sonicated for 30 s and finally heated at 95° C. for 5 mins. Protein concentration was measured using Bio-Rad protein assay (SDS concentration in the assay 0.001%) and normalized to the same concentration. Click reaction was performed using the solubilized lysate proteins according to the procedures described above. After 2 h incubation, 15 μL reaction aliquot from each sample was mixed with 5 μL sample buffer (with β-mecaptoethanol) for SDS-PAGE and Western blot analysis. Biotinylated proteins were probed using Streptavidin-HRP. In control experiments, lysates were pre-reduced with 10 mM TCEP at pH 7.4 for 1 h at r.t. before the addition of 2; lysates prepared in the absence of 2 with or without click reaction were also included in the SDS-PAGE and Western blot analysis.

[4] = biological target: C165S AhpC-SH, C165S AhpC-SO2H and —SO3H, WT AhpC-S—S-AhpC (Salmonella typhimurium, UniProt P0A251, C166S); experiment: Control experiments using AhpC-SH, AhpC-SO2/3H and WT AhpC proteins (ESI-TOF MS); format: biochemical, bacteria; settings: pH 9.5
C165S AhpC-SH, C165S AhpC-SO2H and —SO3H, WT AhpC-S—S-AhpC (Salmonella typhimurium, UniProt P0A251, C166S), sequence (P0A251 2-187 C166S): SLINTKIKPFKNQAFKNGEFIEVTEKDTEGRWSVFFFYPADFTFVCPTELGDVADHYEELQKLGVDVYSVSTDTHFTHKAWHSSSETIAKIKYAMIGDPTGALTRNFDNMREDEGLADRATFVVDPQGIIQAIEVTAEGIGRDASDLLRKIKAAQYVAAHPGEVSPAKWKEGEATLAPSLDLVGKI
Method: (§2) Reduced form of C165S AhpC(C165S AhpC-SH), hyperoxidized protein (C165S AhpC-SO2H and —SO3H) and WT AhpC (disulfide crosslinked dimer, […]) were incubated with 1 (5 mM) for 1.5 h at r.t., pass through the Bio-Gel spin column and analyzed by ESI-TOF MS. C165S AhpC-SO2H and —SO3H were generated by incubating C165S AhpC-SH (250 μM) in ddH2O with 20 equivalents H2O2 for 1 h at r.t. with mixing. The excess H2O2 was removed using Bio-Gel spin columns and protein concentration was determined based on absorbance at 280 nm using the extinction coefficient 24,300 (M^−1 cm^−1).
as §1

[5] = cited from earlier work
[6] = system: C165S AhpC-SH, C165S AhpC-SO2H and —SO3H, WT AhpC-S—S-AhpC; experiment: Control experiments using AhpC-SH, AhpC-SO2/3H and WT AhpC proteins (ESI-TOF MS); format: biochemical, bacteria; settings: 5 mM, pH 7.4, 1.5 h at r.t.
Method: as §2, §1

C165S AhpC-SOH, sequence (P0A251 whole entry C166S): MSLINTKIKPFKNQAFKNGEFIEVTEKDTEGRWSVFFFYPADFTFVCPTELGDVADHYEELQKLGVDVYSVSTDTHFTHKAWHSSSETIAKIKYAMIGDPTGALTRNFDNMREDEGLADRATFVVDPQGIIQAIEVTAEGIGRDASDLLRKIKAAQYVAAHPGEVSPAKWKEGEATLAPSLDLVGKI

| SMILES | reactivity with AhpC-SOH as pH increases (C165S AhpC-SOH; higher pH (up to 9.5)) | reactivity with AhpC-SOH at low pH (C165S AhpC-SOH; pH 5.5 and 6.5) | K0.5 (hyperbolic fit of labeling vs probe concentration) (C165S AhpC-SOH; pH 7.4, 2 h, r.t., 0.2-10 mM probe) [mM] | labeling of —SOH compared with dimedone (C165S AhpC-SOH; pH 7.4 and 8.5, 50 μM protein, 5 mM reagent, 4 h) | intracellular ROS level (DCF) (NIH 3T3 cells) | cell permeability (biotin signal after click reaction) (SCC-61 cells [1]) | effect on cell viability (SCC-61 cells [2]) | labeling of lysate proteins (streptavidin-HRP signal) ([3]; pH 5.5) | labeling of lysate proteins (streptavidin-HRP signal) ([3]; pH 7.4 and 9.5) | selectivity of labeling in cell lysates ([3]; pH 7.4, lysates pre-reduced with TCEP as control) | adduct formation with reduced form of C165S AhpC [4] | reactivity at mildly acidic or basic conditions compared to pH 7.4 (C165S AhpC-SOH; data not shown) | IC50 (SCC-61 cells [2]; read-out: IC50 (50% reduction in cell viability)) [mM] | keto-enol tautomerism state ([5]; reported) | pKa for the carbon between keto groups ([5]; reported) | labeling of C165S AhpC-SOH (adduct product peak) (C165S AhpC-SOH; AhpC 50 uM, reagent 5 mM, pH 7.4, 3 h) | reaction with —SH, —S—S—, —SO2/3H, or other amino acid residues [6] | enol content ([5]; in aqueous solution) [%] |
| --- | --- | --- | --- | --- | --- | --- | --- | --- | --- | --- | --- | --- | --- | --- | --- | --- | --- | --- |
| C#CCCOC(=O)CC(C)=O [compound 2, but-3-yn-1-yl 3-oxobutanoate] | becomes highly reactive | reacts very slowly | 3.0 ± 0.3 | Increased labeling | did not alter the basal level of ROS | cell permeable | did not significantly affect cell viability | no visible signal | Nearly equal labeling | selective towards —SOH | no adduct formation |  |  |  |  |  |  |  |
| CC1(C)CC(=O)CC(=O)C1 [dimedone, 5,5-dimethyl-1,3-cyclohexanedione, reference compound] |  |  |  |  | significant increase in ROS |  |  |  |  |  |  | slight increase in reactivity | 5.3 ± 0.2 | exclusively in the enol state | 4.3 |  |  |  |
| COC(=O)CC(C)=O [compound 1, methyl acetoacetate] |  |  |  |  |  |  |  |  |  |  |  |  |  |  |  | labeling of C165S AhpC-SOH | did not react | 7.4 |

Source: patent publication US9023653B2, “Method of labeling sulfenic acid-containing proteins and peptides” (Wake Forest University Health Sciences, priority 2011, dated 2015)
